# Source: US20230226040A1, “COMBINATION THERAPY COMPRISING AN FGFR INHIBITOR AND A KRAS INHIBITOR” (Incyte Corporation, priority 2021, published 2023)
# What was measured:
# Format in all cases: cell-based
# A427 cells = assay: siRNA FGFR knockdown plus KRAS G12D inhibitor, Cell Titer Glo proliferation; settings: FGFR1 isoform knocked down; 120 h
# Protocol: To further evaluate the KRAS/FGFR combination mechanism of action, siRNA FGFR knockdown experiments were conducted in A427 cells, followed by treatment with KRAS G12D inhibitors Compound 5, Compound 6, and Compound 7. Knockdown efficiency was assessed by Western blot (FIG. 13A) and its effect was measured by cell proliferation inhibition (FIGS. 13B-G). Initially, the effect of single FGFR isoforms knockdown in combination with KRAS G12D inhibitors Compound 5 (FIG. 13B), Compound 6 (FIG. 13D) and Compound 7 (FIG. 13F) was assessed. […] In addition, combining FGFR1 knockdown with knockdown of additional FGFR isoforms further increased the effect of KRAS G12D inhibitors (FIGS. 13C, E and G)
# (§1) The lyophilized siRNA pools or individuals (Dharmacon ON-TARGET plus siRNA from Horizon Discovery) were reconstituted by combining 1× siRNA buffer (200 μL) with lyophilized siRNA (20 nmol); or combining lx siRNA buffer (100 μL) with lyophilized siRNA (10 nmol). Dharmafect Reagent 1 was prepared at a 1:200 dilution in 1× siRNA buffer. One tube of diluted reagent was prepared for each siRNA dilution. To each tube, the appropriate siRNA was added to Dharmafect Reagent 1 at a 1:400 dilution. The prepared siRNA reagent (25 μL per well) was added to the appropriate number of wells on a 96-well clear bottom Greiner plate and incubated at room temperature for 30 min.
# For plating in 96-well pates, 2000 A427 cells per well in 100 !IL of medium were prepared. The prepared cells (100 !IL per well) were added to each well of the 96-well plate and incubated at 48 h.
# Compound plates were prepared with a compound starting concentration of 5 mM in a 3-fold dilution. Following 48 h transfection incubation, the appropriate compounds were added to the 96-well plate at a final starting concentration of 5μM in 3-fold dilution (11 point dose response curve). After addition of the compounds, the 96-well plates were incubated at 37° C. for 120 h. […] The plates were tapped gently and luminescence was read on a Pherastar microplate reader.
# Calu-1 = assay: 5-day Cell Titer Glo combination matrix, Bliss score; settings: Calu-1 (Lung, Mesenchymal); KRAS inhibitor in combination with pemigatinib; 5 days
# Protocol: (§2) Cells were seeded in RPMI medium with 10% HI FBS at a density of 500 cells/well in Greiner, white, clear bottom, 384-well tissue culture treated plates containing 10×10 combination matrices of compound. Plates were incubated at 37° C., 5% CO2 for 5 days. On day 5, Cell Titer Glo reagent was added to the plates and ATP luminescence was detected using a Pherastar FSX reader. The synergy score for the combination effect was calculated using a Bliss score model where the Bliss score=Yab-(Ya+Yb−(YaYb))×100, where Ya and Yb are the monotherapies. Bliss scores >20 are strongly synergistic and a higher Bliss scores indicates a higher level of synergism.
# LU99 cells = assay: siRNA FGFR knockdown plus KRAS G12C inhibitor, Cell Titer Glo proliferation; settings: in the absence of FGFR1 or FGFR4; 120 h
# Protocol: Knockdown efficiency was assessed by Western blot and its effect was measured by cell proliferation inhibition.
# as §1, with “combining 1×” for “combining lx”, “in 1X” for “in 1×”, “([…]” for “(25 μL”
# For plating in 96-well pates, 2000 LU99 cells per well in 100 μL of medium were prepared. The prepared cells (100 μL per well) were added to each well of the 96-well plate and incubated at 48 h.
# Compound plates were prepared with a compound starting concentration of 5 mM in a 3-fold dilution. Following 48 h transfection incubation, the appropriate compounds were added to the 96-well plate at a final starting concentration of 5 μM in 3-fold dilution (11 point dose response curve). After addition of the compounds, the 96-well plates were incubated at 37° C. for 120 h. After this time, Cell Titer Glo reagent is reconstituted and 100 μL of reagent was added per well. The plates were tapped gently and luminescence was read on a Pherastar microplate reader.
# H1792 = assay: 5-day Cell Titer Glo combination matrix, Bliss score; settings: H1792 (Lung, Mesenchymal), 5 days
# Protocol: as §2
# (§3) Cells were seeded in RPMI medium with 10% HI FBS at a density of 500 cells/well in Greiner, white, clear bottom, 384-well tissue culture treated plates containing 10×10 combination matrices of compound. Plates were incubated at 37° C., 5% CO2 for 5 days. On day 5, Cell Titer Glo reagent was added to the plates and ATP luminescence was detected using a Pherastar FSX reader. Synergy score for the combination effect is calculated using a Bliss score model where the Bliss score=Yab−(Ya+Yb−(YaYb))×100, where Ya and Yb are the monotherapies. Bliss scores >20 are strongly synergistic and a higher Bliss scores indicates a higher level of synergism.
# (§4) Cells were seeded in RPMI medium with 10% HI FBS at a density of 500 cells/well in Greiner, white, clear bottom, 384-well tissue culture treated plates containing 10×10 combination matrices of compound. Plates were incubated at 37° C., 5% CO2 for 5 days. On day 5, Cell Titer Glo reagent was added to the plates and ATP luminescence was detected using a Pherastar FSX reader. The synergy score for the combination effect was calculated using a Bliss score model where the Bliss score=Yab−(Ya+Yb−(YaYb))×100, where Ya and Yb are the monotherapies. Bliss scores >20 are strongly synergistic and a higher Bliss scores indicates a higher level of synergism.
# SW-1573 = assay: as above; settings: SW-1573 (Lung, Mesenchymal), 5 days
# Protocol: as §2, §3, §4
# H358 = assay: as above; settings: H358 (Lung, Epithelial), 5 days
# Protocol: as §2, §3, §4
# HCC-44 = assay: as above; settings: HCC-44 (Lung, Mesenchymal); KRAS inhibitor in combination with pemigatinib; 5 days
# Protocol: as §2, §4
# SW-837 = assay: as above; settings: SW-837 (CRC, Epithelial); KRAS inhibitor in combination with pemigatinib; 5 days
# Protocol: as §2, §4
# LU-99 = assay: as above; settings: LU-99 (Lung, Mesenchymal); FGFR inhibitor in combination with Cmpd 3; 5 days
# Protocol: as §3, §4
# [1] = KRAS inhibitor in combination with pemigatinib
# [2] = FGFR inhibitor in combination with Cmpd 3
SMILES,inhibition of A427 cell proliferation after siRNA knockdown (A427 cells),Avg. Bliss Score (LU-99),Avg. Bliss Score (H1792; [2]),Avg. Bliss Score (SW-1573; [2]),Avg. Bliss Score (H358; [2]),also measured
"Cc1cc2c(-n3cncn3)nc3c(F)c(-c4cc(O)cc5ccc(F)cc45)c(CCC#N)cc3c2n1[C@H]1[C@H]2CN[C@@H]1C2 [Compound 5, 3-(1-((1R,4R,5S)-2-Azabicyclo[2.1.1]hexan-5-yl)-6-fluoro-7-(7-fluoro-3-hydroxynaphthalen-1-yl)-2-methyl-4-(1H-1,2,4-triazol-1-yl)-1H-pyrrolo[3,2-c]quinolin-8-yl)propanenitrile]",higher inhibition in proliferation compared to controls,–,–,–,–,–
"CN(C)C1(C)CN(c2nc3c(F)c(-c4ccc(F)c5cccnc45)c(C(F)(F)F)cc3c3c2nnn3[C@H]2CCN(C(=O)/C=C/CF)[C@H](CC#N)C2)C1 [Compound 3, 2-((2S,4S)-4-(4-(3-(dimethylamino)-3-methylazetidin-1-yl)-6-fluoro-7-(5-fluoroquinolin-8-yl)-8-(trifluoromethyl)-1H-[1,2,3]triazolo[4,5-c]quinolin-1-yl)-1-((E)-4-fluorobutenoyl)piperidin-2-yl)acetonitrile]",–,–,–,–,–,Avg. Bliss Score (Calu-1): 8.7; inhibition of LU99 cell proliferation after siRNA knockdown (LU99 cells): higher inhibition in proliferation; Avg. Bliss Score (H1792; [1]): 28.5; Avg. Bliss Score (SW-1573; [1]): 18.6; Avg. Bliss Score (H358; [1]): 3.8; Avg. Bliss Score (HCC-44): 5.8; Avg. Bliss Score (SW-837): 0.9
CC(=O)N1CCC[C@@H]1c1cc2c(O[C@@H](C)[C@@H]3CCCN3C)nc3c(F)c(-c4cccc5c4C(C#N)CCC5)c(C)cc3c2n1[C@H]1[C@H]2CN[C@@H]1C2 (stereo partly shown) [Compound 6],higher inhibition in proliferation compared to controls,–,–,–,–,–
CCN1CCN(c2ccc(Nc3cc(N(C)C(=O)Nc4c(Cl)c(OC)cc(OC)c4Cl)ncn3)cc2)CC1 [BGJ398],–,31.9,11.2,7.5,−0.8,–
CCOc1nc2c(F)c(-c3cc(O)cc4ccccc34)c(CCC#N)cc2c2c1cc(CN1CCN(CC)CC1=O)n2[C@H]1[C@H]2CN[C@@H]1C2 [Compound 7],higher inhibition in proliferation compared to controls,–,–,–,–,–
"C=CC(=O)N1CC[C@H](n2ncc3c(N4CC(N(C)C)C4)nc4c(F)c(-c5c(C)c(Cl)cc6[nH]ncc56)c(Cl)cc4c32)C[C@H]1CC#N [Compound 4, 2-((2S,4S)-1-acryloyl-4-(8-chloro-7-(6-chloro-5-methyl-1H-indazol-4-yl)-4-(3-(dimethylamino)azetidin-1-yl)-6-fluoro-1H-pyrazolo[4,3-c]quinolin-1-yl)piperidin-2-yl)acetonitrile]",–,–,–,–,–,Avg. Bliss Score (Calu-1): −9.9; Avg. Bliss Score (H1792; [1]): 30; Avg. Bliss Score (SW-1573; [1]): 17; Avg. Bliss Score (H358; [1]): −3; Avg. Bliss Score (HCC-44): 4.7; Avg. Bliss Score (SW-837): −11.7
C=CC(=O)N1CC[C@H](n2nc(C#Cc3cc(OC)cc(OC)c3)c3c(N)ncnc32)C1 [TAS-120],–,22,17.4,6.6,3.3,–
COc1cc(OC)cc(N(CCNC(C)C)c2ccc3ncc(-c4cnn(C)c4)nc3c2)c1 [Erdafitinib],–,34.7,12.9,7.9,4.4,–
